What all share (format): in vivo
Experiment [1] relates to Tetranychus urticae. The experiment in a line: Tetranychus urticae - spray test, OP-resistant. Conditions: mortality, French beans sprayed. As for the experimental part:
(§1) For all examples the efficiencies of the compositions comprising at least one BCA and at least one specific insecticide has been determined by the “Colby-formula”: The expected efficacy of a given combination of two compounds is calculated as follows (see Colby, S. R., “Calculating Synergistic and antagonistic Responses of Herbicide Combinations”, Weeds 15, pp. 20-22, 1967): • If • X is the efficacy expressed in % mortality of the untreated control for test compound A at a concentration of m ppm respectively m g/ha, • Y is the efficacy expressed in % mortality of the untreated control for test compound B at a concentration of n ppm respectively n g/ha, • E is the efficacy expressed in % mortality of the untreated control using the mixture of A and B at m and n ppm respectively m and n g/ha, then is E=X+Y−(X×Y/100)
(§2) If the observed insecticidal efficacy of the combination is higher than the one calculated as “E”, then the combination of the two compounds is more than additive, i.e., there is a synergistic effect.
Tetranychus urticase—Spray Test, OP-resistant […]
(§3) After the specified period of time, mortality in % is determined. […] The mortality values determined thus are recalculated using the Colby-formula (see above).

The test system of experiment [2] is Myzus persicae. The experiment in a line: Myzus persicae - spray test (MYZUPE). Particulars: mortality. The protocol: as §1, §2
Myzus persicae—Spray Test (MYZUPE) […]
as §3

The subject of experiment [3] is Phaedon cochleariae. The experiment can be described thus: Phaedon cochleariae - spray test. Conditions: mortality of larvae, 100 g ai/ha. As for the experimental part: as §1, §2
Phaedan Cochleariae—Spray Test […]
as §3

On to `O=C1C=C(N(Cc2ccc(Cl)nc2)CC(F)F)CO1` [Flupyradifurone (I262), Flupyradifurone, reference compound], for which the “Efficacy in % after 6^d” value in experiment [1] (6 d, 20 g ai/ha) came out at 0%. Also, the “Efficacy in % after 1^d” value in experiment [2] (Chinese cabbage leaf-disks sprayed, 1 d, 4 g/ha) amounted to 0%.
For `Cc1cc(F)c(-n2nc(C(F)(F)F)nc2N)cc1[S+]([O-])CC(F)(F)F` (centres unmarked) [I277, 1-{2-fluoro-4-methyl-5-[(2,2,2-trifluorethyl)sulfinyl]phenyl}-3-(trifluoromethyl)-1H-1,2,4-triazol-5-amine], the “Efficacy in % after 2^d” value in experiment [1] (2 d, 100 g ai/ha) is listed as 0%. Moreover, the “Efficacy in % after 6^d” value in experiment [2] (6 d, 100 g/ha) was found to be 0%; in experiment [3], 0%.

The values above are taken from US9801387B2, “Compositions comprising a biological control agent and an insecticide” (Bayer CropScience AG, priority 2012, dated 2017).
